Measured values reported in patent US7071173B2, “Antiviral methods employing double esters of 2′, 3′-dideoxy-3′-fluoroguanosine” (Medivir AB, priority 1998, dated 2006).
Like-named read-outs stand apart in the source and are kept apart here. Blank lines part the entries; values can stand above or below the molecule they belong to.

Experiments:
[1] = Rat pharmacokinetics: FLG in serum after oral prodrug, absolute oral bioavailability; conditions: in vivo
Source text: (§1) Biomed. Anal. 13, 369–376.

[2] = Protein binding in serum samples; type: in vitro ADME
Source text: as §1

[3] = Bioavailability of FLG as detected by the present inventors; conditions: in vivo; FLG itself
Source text: International patent application no. […] The former compound FLG is very active in vitro however the present inventors have detected that its bioavailability is so poor-around 4%-that the in vivo utility of the compound has thus far been limited to intraperitoneally or subcutaneously administered animal models.

[4] = FLG itself; **literature value; cited from earlier work
[5] = Weight gain of treated DHBV-infected ducks (toxicity); type: in vivo
Source text: The activity of antivirals on duck hepatitis B virus (DHBV) in ducks is an acknowledged animal model for the validation of in vivo hepatitis B activity in humans. […] The ducks were two days old when inoculated with DHBV and 18 days old when treatment was commenced. […] Treatment lasted 33 days and the animals were followed 5 weeks after the end of treatment.

SIVSM = assay: XTT dye uptake assay utilising MT4 cells; type: cell-based, SIV; conditions: Simian immunodeficiency virus, read-out: IC50, concentration of metabolite inducing 50% inhibition of viral replication
Source text: (§2) In the XTT dye uptake assay of Koshida et al Antimicrob Agents Chemother.

[6] = test system: duck hepatitis B virus (DHBV); assay: DHBV model in ducks, serum DHBV DNA by dot blot-hybridisation; type: in vivo
Source text: The activity of antivirals on duck hepatitis B virus (DHBV) in ducks is an acknowledged animal model for the validation of in vivo hepatitis B activity in humans. […] The results are depicted in FIGS. […] The ducks were two days old when inoculated with DHBV and 18 days old when treatment was commenced. The metabolite and PBS (controls) were given intraperitoneally for 10 days as twice daily injections, at 8 am and 4 pm. Treatment lasted 33 days and the animals were followed 5 weeks after the end of treatment.
The efficacy of treatment was followed by dot blot-hybridisation of DHBV DNA in serum using a radioactive probe and the amount of DHBV measured as the amount of radioactivity hybridised. FIG. 1 plots the amount of DHBV DNA in serum at different timepoints before, during and after treatment.

HIV-2SBL6669 = assay: XTT dye uptake assay utilising MT4 cells; type: cell-based; conditions: Human immunodeficiency virus 2, read-out: IC50, concentration of metabolite inducing 50% inhibition of viral replication
Source text: as §2

HIV-1^29/9 = assay: XTT dye uptake assay utilising MT4 cells; type: cell-based; conditions: Human immunodeficiency virus 1, read-out: IC50, concentration of metabolite inducing 50% inhibition of viral replication
Source text: as §2

HIV-1^2441 AZT^r = assay: XTT dye uptake assay utilising MT4 cells; type: cell-based; conditions: Human immunodeficiency virus 1, MT4, read-out: IC50, concentration of metabolite inducing 50% inhibition of viral replication
Source text: as §2

HIV-1111B = assay: XTT dye uptake assay utilising MT4 cells; type: cell-based, HIV-1; conditions: Human immunodeficiency virus 1, MT4, read-out: IC50, concentration of metabolite inducing 50% inhibition of viral replication
Source text: as §2

HIV-1111B TIBO^r = assay: XTT dye uptake assay utilising MT4 cells; type: cell-based, HIV-1; conditions: Human immunodeficiency virus 1, MT4, read-out: IC50, concentration of metabolite inducing 50% inhibition of viral replication
Source text: as §2

[7] = rat, in vivo, po
Experimental: At 30, 60, 120, 240 & 360 minutes, 0.2 ml blood were collected, centrifuged and frozen for later analysis. […] Aliquots comprising 40–100 μl of each plasma sample are mixed with an equal volume of acetonitrile (10 seconds, Vibrofex). The sample is centrifuged (2 min, 14000 RPM) and 30 μl of the supernatant is injected into an HPLC system, as follows.

[8] = Rat bioavailability of the indanolic ring hydroxy prodrug, mother compound in plasma by LC-MS; type: in vivo, rats
Experimental: Bioavailability of the ring indanolic ring hydroxy compound of Example B-1 was assessed in rats by the procedure of Biological Example 5 also using a propylene glycol vehicle, 58 mg/kg (0.047 mmol/kg), but wherein the mother compound N1, N6-di [(1S,2R)-2-hydroxy-2,3-dihydro-1-H-1-indenyl]-(2R, 3R, 5R)-2,5-di(benzyloxy)-3,4-dihydroxyhexanediamide was assayed by LC-MS using SiM (single ion monitoring) with M/Z ion detector 653. Plasma results are presented as μM in the table below: […]

SMILES: CCCCCCCCCCCCCCCCCC(=O)OCC(COC(=O)[C@@H](N)C(C)C)CC(=O)OC[C@H]1O[C@@H](n2cnc3c(=O)[nH]c(N)nc32)C[C@@H]1F (some centres unmarked) [Example 13]
6 h absolute bioavail. % [1]: 37%

SMILES: Nc1nc2c(ncn2[C@H]2C[C@H](F)[C@@H](CO)O2)c(=O)[nH]1 [FLG, 2′,3′-dideoxy, 3′-fluoroguanosine]
protein binding [2]: neglible
bioavailability [3]: ~4%
12 h absolute bioavail. % [4]: 9%**
weight of the ducks during treatment ([5]; 5 mg/kg/day, compared with PBS treated controls): increased in the same way as in the control
toxicity judged from growth rate ([5]; ducks, treatment period): clearly non-toxic
IC50 (SIVSM): 1 µg/mL
inhibition of DHBV in vivo ([6]; 0.3 mg/kg/day): considerable inhibition of DHBV in vivo
amount of DHBV DNA in serum during treatment ([6]; 5 mg/kg/day intraperitoneally, twice daily injections): dramatic decrease in the amount of DHBV in serum during the first 10 days of treatment, whereupon for the remainder of treatment the level of DHBV DNA was below the detection limit
DHBV in serum after the finish of treatment ([6]; after the finish of treatment, followed 5 weeks): virus reappeared in the serum
serum DHBV DNA during treatment ([6]; repeat experiments at 30 and 3 mg/kg/day and with congenitally infected ducks): dramatic fall in serum DHBV DNA to under the detection threshold
IC50 (HIV-2SBL6669): 2 µg/mL
IC50 (HIV-1^29/9): 0.7 µg/mL
IC50 (HIV-1^2441 AZT^r): 1 µg/mL
IC50 (HIV-1111B): 1 µg/mL
IC50 (HIV-1111B TIBO^r): 1 µg/mL

SMILES: CCCCCCCCCCCCCCCCCC(=O)OCC(CCCC(=O)OC[C@H]1O[C@@H](n2cnc3c(=O)[nH]c(N)nc32)C[C@@H]1F)COC(=O)[C@@H](N)C(C)C (stereo partly drawn) [Example 12, 2′ 3′-dideoxy-3′-fluoro-5′-O-[5-(L-valyloxymethyl)-6-stearoyloxyhexanoyl]guanosine]
6 h absolute bioavail. % [1]: 29%

SMILES: CC(C)C(N)C(=O)OC1Cc2ccccc2C1NC(=O)[C@H](OCc1ccccc1)C(O)C(O)[C@@H](OCc1ccccc1)C(=O)N[C@H]1c2ccccc2CC1OC(=O)C(N)C(C)C (some centres unmarked)
bioavailability ([8]; rats, same assay, comparator dosed itself): below the level of detection

SMILES: CCCCCCCCCCCCCCCCCC(=O)OC(COC(=O)[C@@H](N)C(C)C)C(=O)OC[C@H]1O[C@@H](n2cnc3c(=O)[nH]c(N)nc32)C[C@@H]1F (some centres unmarked) [Example 25]
6 h absolute bioavail. % [1]: 81.5%

The remaining lines, values ahead:

Bioavailability0–6 hours [7]: 34%
SMILES: CCC(=O)c1ccc(F)c([C@@H]2C[C@@H]2NC(=O)Nc2ccc(C#N)cn2)c1OCOC(=O)[C@@H](N)[C@@H](C)CC (relative stereo) [Example P-1, (1S. 2S)-N-{cis-2-[6-fluoro-2-(L-isoleucyloxymethyloxy)-3-propionylphenyl]cyclopropyl}-N′-[2-(5-cyanopyridyl)]urea]

6 h absolute bioavail. % [1]: 51%
SMILES: CC(C)[C@H](N)C(=O)OCC(COC(=O)[C@@H](N)C(C)C)OC(=O)CCC(=O)OC[C@H]1O[C@@H](n2cnc3c(=O)[nH]c(N)nc32)C[C@@H]1F [Example 29, 2′, 3′-Dideoxy-3′-fluoro-5′-O-3-[1,3-bis-(L-valyloxy]-2-propyloxycarbonylpropanoyl]guanosine]

bioavailability ([8]; rat, in vivo): below level of detection
SMILES: O=C(N[C@H]1c2ccccc2C[C@H]1O)[C@H](OCc1ccccc1)C(O)[C@@H](O)[C@@H](OCc1ccccc1)C(=O)N[C@H]1c2ccccc2C[C@H]1O (stereo partly drawn) [mother compound, N1, N6-di [(1S,2R)-2-hydroxy-2,3-dihydro-1-H-1-indenyl]-(2R, 3R, 5R)-2,5-di(benzyloxy)-3,4-dihydroxyhexanediamide]

12 h absolute bioavail. % [1]: 67.5%
SMILES: CC(C)[C@H](N)C(=O)OCC(COC(=O)[C@@H](N)C(C)C)CC(=O)OC[C@H]1O[C@@H](n2cnc3c(=O)[nH]c(N)nc32)C[C@@H]1F [Example 26, 2′, 3′-Dideoxy-3′-fluoro-5′-O-[3,3-bis(L-valyloxymethyl)-propionic acid] guanosine]
